According to the supplement of paper PMC8960247:
Where a name gives a salt, the structure may show the parent alone. ± gives the standard error.

Legend:
621-102 (TSC2-deficient) = assay: relative viability vs DMSO; higher = less cytotoxic; settings: serum: 10% FBS, 72 h
621-103 (TSC2-rescued) = assay: as above; settings: serum: 10% FBS, 72 h
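Further: immortalized renal angiomyolipoma cells stably carrying empty vector or TSC2, dosed in 384-well plates in DMEM, viability normalized to vehicle-treated wells within each plate.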

Row | SMILES | relative viability (621-102 (TSC2-deficient); 0.0001 µM) | relative viability (621-102 (TSC2-deficient); 0.001 µM) | relative viability (621-102 (TSC2-deficient); 0.01 µM) | relative viability (621-102 (TSC2-deficient); 0.1 µM) | relative viability (621-102 (TSC2-deficient); 1 µM) | relative viability (621-102 (TSC2-deficient); 10 µM) | relative viability (621-103 (TSC2-rescued); 0.0001 µM) | relative viability (621-103 (TSC2-rescued); 0.001 µM) | relative viability (621-103 (TSC2-rescued); 0.01 µM) | relative viability (621-103 (TSC2-rescued); 0.1 µM) | relative viability (621-103 (TSC2-rescued); 1 µM) | relative viability (621-103 (TSC2-rescued); 10 µM)
1 | FC(F)(F)c1ccc(/C=C/c2nc(COc3ccc(CCCCn4ccnn4)cc3)co2)cc1 [Mubritinib (TAK 165)] | 106 ± 3.2% | 105.09 ± 0.037% | 97.5 ± 1.1% | 103 ± 2.6% | 107 ± 1.2% | 110.2 ± 1.1% | 112 ± 3.3% | 106 ± 2% | 104 ± 2.1% | 112 ± 1.4% | 107 ± 2.1% | 115 ± 1.7%
2 | O=C(Nc1ccc(OC(F)(F)F)cc1)c1sccc1NCc1ccnc2ccccc12 [OSI-930] | 84 ± 2.4% | 116 ± 2.3% | 114 ± 4.7% | 111.7 ± 0.23% | 112 ± 1.4% | 108 ± 5% | 95.6 ± 0.43% | 106 ± 1.1% | 108 ± 3.1% | 108 ± 1.7% | 103 ± 1.7% | 100.9 ± 0.9%
3 | Cc1[nH]c(=O)c(C#N)cc1-c1ccncc1 [Milrinone (Primacor)] | 109 ± 3.1% | 114 ± 2.9% | 110 ± 2% | 103.33 ± 0.049% | 107 ± 3.9% | 107 ± 1.4% | 95.74 ± 0.27% | 91.11 ± 0.53% | 95.5 ± 9.2% | 91.8 ± 3.8% | 91.27 ± 0.77% | 89.3 ± 2.9%
4 | COc1ccccc1N1CCN(CC(O)COc2cccc3ccccc23)CC1 (stereo not drawn) [Naftopidil Dihydrochloride] | 103 ± 5.6% | 109 ± 1.6% | 108.5 ± 0.88% | 106 ± 1.2% | 105.81 ± 0.046% | 110 ± 5% | 110 ± 0.54% | 97.8 ± 11% | 106.7 ± 0.54% | 106 ± 3.4% | 104 ± 1.7% | 108 ± 4.8%
5 | COc1ccccc1N1CCN(CCN2C(=O)CC3(CCCC3)CC2=O)CC1 [BMY 7378] | 104.1 ± 0.41% | 110 ± 3.7% | 100 ± 3.8% | 104.4 ± 0.88% | 105 ± 0.26% | 95.3 ± 2.3% | 96.7 ± 4.4% | 96.58 ± 0.1% | 99.07 ± 0.31% | 98.2 ± 1.8% | 105 ± 1.9% | 105 ± 1.3%
6 | N[C@@H](CC(=O)N1CCn2c(nnc2C(F)(F)F)C1)Cc1cc(F)c(F)cc1F [Sitagliptin phosphate] | 98.7 ± 0.22% | 104.4 ± 0.16% | 103 ± 2.5% | 94 ± 4.4% | 96.2 ± 1.3% | 91.46 ± 0.51% | 97.02 ± 0.71% | 97.6 ± 1.3% | 98.68 ± 0.34% | 100 ± 2% | 98.8 ± 2.4% | 101 ± 0.53%
7 | Cc1cn(-c2cc(NC(=O)c3ccc(C)c(Nc4nccc(-c5cccnc5)n4)c3)cc(C(F)(F)F)c2)cn1 [Nilotinib] | 70 ± 0.81% | 71.8 ± 7.4% | 70.7 ± 6.9% | 96.2 ± 7.2% | 93 ± 6.9% | 18.9 ± 7.6% | 82.55 ± 0.76% | 82.1 ± 1.1% | 89 ± 1.5% | 90.4 ± 1.4% | 84.5 ± 4.6% | 7.52 ± 0.28%
8 | O=C(c1ccc(/C=C/c2n[nH]c3ccccc23)cc1)N1CCNCC1 [KW 2449] | 103 ± 1.6% | 92.5 ± 3.8% | 93.7 ± 0.96% | 94.1 ± 1.3% | 95.02 ± 0.93% | 37.58 ± 0.36% | 102.2 ± 0.34% | 101.3 ± 0.97% | 101.8 ± 0.59% | 102 ± 1.6% | 96.784 ± 0.018% | 15.1 ± 0.84%
9 | Cc1c(C(=O)Nc2ccc(N3C[C@@H](C)O[C@@H](C)C3)nc2)cccc1-c1ccc(OC(F)(F)F)cc1 [LDE225] | 91.8 ± 6.5% | 106 ± 2.3% | 116 ± 3.8% | 120 ± 0.74% | 115 ± 5.7% | 81.9 ± 9.2% | 92.8 ± 2.8% | 113 ± 7.7% | 112 ± 2.8% | 115.8 ± 0.72% | 116 ± 6.1% | 54.6 ± 1.5%
10 | CN(C)c1ccc(-c2nc3ncc(Cl)c(N4CCN(CC(=O)Nc5nccs5)CC4)c3[nH]2)cc1 | 104 ± 2.7% | 96.7 ± 1.2% | 102 ± 4% | 105 ± 1.4% | 101 ± 4.3% | 49.3 ± 1.4% | 101 ± 2.5% | 103.4 ± 0.042% | 101.06 ± 0.096% | 100.6 ± 0.64% | 97.243 ± 0.044% | 47.5 ± 2.9%
11 | CNC(=O)c1ccc(C)c(-n2c(C)cc(OCc3ccc(F)cc3F)c(Br)c2=O)c1 | 105 ± 5.5% | 101 ± 2.1% | 109.06 ± 0.1% | 109 ± 1.6% | 97.8 ± 1.9% | 103 ± 0.24% | 102 ± 4.2% | 102 ± 2.3% | 99 ± 1% | 97.6 ± 0.99% | 99.4 ± 1.4% | 95 ± 2.2%
12 | CN(c1ncccc1CNc1nc(Nc2ccc3c(c2)CC(=O)N3)ncc1C(F)(F)F)S(C)(=O)=O | 99.84 ± 0.61% | 105 ± 2.5% | 97.1 ± 2.1% | 101 ± 1.2% | 94.8 ± 5.8% | 47.7 ± 8.3% | 106 ± 4.2% | 94.4 ± 5.1% | 102 ± 0.37% | 100.6 ± 0.65% | 97.5 ± 6.1% | 38.2 ± 5.9%
13 | COc1cc(Nc2c(C#N)cnc3cc(OCCCN4CCN(C)CC4)c(OC)cc23)c(Cl)cc1Cl [Bosutinib (SKI-606)] | 94.6 ± 3.7% | 109 ± 3.2% | 92.7 ± 6.8% | 103 ± 7.9% | 64.3 ± 7.2% | 3.18 ± 0.88% | 85.39 ± 0.5% | 93.6 ± 3% | 94.5 ± 6% | 90.2 ± 6.4% | 69.5 ± 4% | 1.86 ± 0.19%
14 | CC1=C(C(=O)Nc2cc3cn[nH]c3cc2F)C(c2ccc(C(F)(F)F)cc2)CC(=O)N1 (stereo not drawn) | 121 ± 2.4% | 104 ± 2.5% | 104.73 ± 0.024% | 108 ± 2% | 106 ± 2.2% | 85.826 ± 0.053% | 99 ± 0.99% | 98.74 ± 0.16% | 101 ± 3.5% | 101.2 ± 0.43% | 99.79 ± 0.91% | 96.4 ± 2.7%
15 | COCC(=O)NC/C=C/c1ccc2ncnc(Nc3ccc(Oc4ccc(C)nc4)c(C)c3)c2c1 | 100 ± 2.7% | 97.758 ± 0.079% | 97.3 ± 1.7% | 93.9 ± 1.9% | 98.9 ± 2.8% | 93.2 ± 2.4% | 101 ± 1.9% | 101.6 ± 0.36% | 103.06 ± 0.024% | 104 ± 1.2% | 103.7 ± 0.92% | 107.8 ± 0.28%
16 | O=C(c1ccccc1)c1ccc2n1CCC2C(=O)O (stereo not drawn) [Ketorolac] | 102 ± 1.8% | 102 ± 4.5% | 106 ± 2.7% | 109 ± 3.2% | 117 ± 4.6% | 94.8 ± 7.1% | 96.9 ± 1.1% | 121 ± 6.7% | 128 ± 4% | 112 ± 3.3% | 98.25 ± 0.73% | 108 ± 1.6%
17 | N#Cc1ccc(C(c2ccc(C#N)cc2)n2cncn2)cc1 [Letrozole] | 130 ± 1.9% | 114 ± 5.8% | 114 ± 0.22% | 104 ± 5% | 113.3 ± 0.22% | 111 ± 1.2% | 103 ± 1.7% | 105 ± 2% | 103.5 ± 0.86% | 99.5 ± 1% | 102.6 ± 0.18% | 101 ± 1.1%
18 | O=C(c1ccc(F)cc1)N1CCC[C@H](c2nc(-c3ccc(F)cc3)no2)C1 | 90.9 ± 4.4% | 89.5 ± 2% | 107 ± 1.4% | 104.7 ± 0.73% | 97.3 ± 4.3% | 89.7 ± 2.8% | 102 ± 2.5% | 97.8 ± 7.7% | 100 ± 3.3% | 103 ± 2.4% | 105 ± 0.68% | 108 ± 4.5%
19 | CN(C)CC/C=C1/c2ccccc2COc2ccc(CC(=O)O)cc21 [Olopatadine HCl (Opatano)] | 114 ± 2.8% | 114 ± 2.6% | 108 ± 1.5% | 113 ± 3.7% | 105 ± 1.6% | 97.2 ± 6.5% | 104 ± 5% | 103 ± 5.9% | 97 ± 4% | 102 ± 1.3% | 98.51 ± 0.44% | 103 ± 4.8%
